From US8277860B2, “Method of stabilizing 1,4-dihydroxy-2-naphthoic acid” (Meiji Co., Ltd., priority 2003, dated 2012)

Assays:
[1] = Nitrogen gas substitution test: DHNA content during preparation and preservation of DHNA-containing plain yogurt; format: physicochemical
Protocol: (§1) A 5 ml portion of each sample was passed through a solid phase extraction column (Oasis HLB, manufactured by Waters Corporation) conditioned with 5 ml of methanol and 4 ml of 1% (w/v) sodium ascorbate aqueous solution. After washing with 5 ml of an aqueous solution of 1% (w/v) sodium ascorbate and elution with 4 ml of an aqueous solution of 10% (w/v) sodium ascorbate/methanol (1:9), the thus obtained eluate was concentrated under reduced pressure. A 1 ml portion thereof was sampled and filled up with the aforementioned sodium ascorbate-containing methanol. The mixture was filtered through a 0.5 μm filter and subjected to HPLC (column: Cadenza CD-C18 (4.6×150 mm, manufactured by Imtact Corporation), mobile phase: acetonitrile, methanol, water and acetic acid (10:20:200:0.1, vol/vol/vol/vol, adjusted to pH 7 with aqueous ammonia), detector: UV detector, detection wavelength: 254 nm, flow rate: 1.5 ml/min, column temperature: 45° C., sample injection: 20 μl). […]
The DHNA content contained in the plain yogurt was measured in accordance with the aforementioned test example, at respective steps of before pasteurization of the mix, after pasteurization of the same, just after inoculation of the bulk starter and completion of the fermentation, and after the lapse of the preservation for 1 week and 2 weeks, according to the production of plain yogurt of this Example.

[2] = Nitrogen gas substitution test: DHNA content during preservation of DHNA-containing vegetable drink; format: physicochemical; conditions: vegetable drink with ascorbic acid; nitrogen bubbled until dissolved oxygen 5 ppm; pasteurized 140° C. 3 seconds; ordinary temperature (25° C.) preservation, 2 months
Protocol: as §1, with “μl). A calibration curve was prepared by preparing a 1 mg/ml (methanol solution) standard stock solution of a DHNA preparation (046-22422, manufactured by Wako Pure Chemical Industries, Ltd.) and using the solution after optionally diluting with methanol.” for “μl).”

Compound: O=C(O)c1cc(O)c2ccccc2c1O [DHNA, 1,4-dihydroxy-2-naphthoic acid]
- DHNA content after heat pasteurization in comparison with the content before heat pasteurization ([1]; control plain yogurt mix without nitrogen gas bubbling (dissolved oxygen about 10 ppm), heating at 95° C. for 5 minutes): about 30%
- loss of DHNA during the preparation and preservation ([1]; plain yogurt mix bubbled with nitrogen gas (dissolved oxygen less than 1 ppm), pasteurized 95° C. 5 minutes, fermented 43° C. 4 hours, preserved in the dark at 10° C. for 2 weeks): almost completely inhibited
- reduction of the DHNA content during preservation [2]: can be inhibited for a prolonged period of time
